The test deals with ATX (human His-tagged) (Homo sapiens (Human), UniProt Q13822). Kind of test: Human ATX enzyme inhibition assay (fluorescence quenching, MR121 substrate). It is filed as biochemical. The following applies: 30 nM ATX, 1 μM MR121 substrate, 30° C. From the text: Human ATX Enzyme Inhibition Assay
Assay working solutions were made as follows:

SMILES strings stand for the structures.

In the case of `O=C(OCc1cc(Cl)cc(Cl)c1)N1CCC2(CC1)CN(S(=O)(=O)c1ccc3[nH]c(=O)oc3c1)C2` [Example 3, 3,5-Dichlorobenzyl 2-(2-oxo-2,3-dihydro-benzo[d]oxazol-6-ylsulfonyl)-2,7-diazaspiro[3.5]nonane-7-carboxylate], the midpoint of inhibition, the IC50, lay at 6 nM.

In the case of `O=C(CCCc1ccccc1)N1CC2(CC(NS(=O)(=O)c3ccc4[nH]c(=O)oc4c3)C2)C1` [Example 3.1, 2-oxo-2,3-dihydro-benzooxazole-6-sulfonic acid [2-(4-phenyl-butyryl)-2-aza-spiro[3.3]hept-6-yl]-amide], the IC50 came out at 3560 nM.

In turn, `O=C(OCc1ccccc1)N1CC2(CC(NS(=O)(=O)c3ccc4[nH]c(=O)oc4c3)C2)C1` [Example 3.2, benzyl 6-(2-oxo-2,3-dihydrobenzo[d]oxazole-6-sulfonamido)-2-azaspiro[3.3]heptane-2-carboxylate] yielded an IC50 of 298 nM. Compared with the last compound, the IC50 is about 12-fold lower.

For `O=C(CCc1cc(Cl)cc(Cl)c1)N1CC2(CC(NS(=O)(=O)c3ccc4[nH]c(=O)oc4c3)C2)C1` [Example 3.3, 2-oxo-2,3-dihydro-benzooxazole-6-sulfonic acid {2-[3-(3,5-dichloro-phenyl)-propionyl]-2-aza-spiro[3.3]hept-6-yl}-amide], it took 59 nM to reach half-maximal inhibition (IC50).

The compound `O=C(OCc1cc(Cl)cc(Cl)c1)N1CC2(CC(NS(=O)(=O)c3ccc4[nH]c(=O)oc4c3)C2)C1` [Example 3.4, 3,5-dichlorobenzyl 6-(2-oxo-2,3-dihydrobenzo[d]oxazole-6-sulfonamido)-2-azaspiro[3.3]heptane-2-carboxylate] showed an IC50 of 19.5 nM.

Regarding `O=C(NC1CC2(C1)CN(S(=O)(=O)c1ccc3[nH]c(=O)oc3c1)C2)OCc1cc(Cl)cc(Cl)c1` [Example 3.5, [2-(2-oxo-2,3-dihydro-benzooxazole-6-sulfonyl)-2-aza-spiro[3.3]hept-6-yl]-carbamic acid 3,5-dichloro-benzyl ester], the IC50 was 20 nM.

`CS(=O)(=O)c1cc(Cl)cc(COC(=O)N2CCC3(CC2)CN(S(=O)(=O)c2ccc4[nH]c(=O)sc4c2)C3)c1` [Example 3.6, 3-chloro-5-(methylsulfonyl)benzyl 2-(2-oxo-2,3-dihydrobenzo[d]thiazol-6-ylsulfonyl)-2,7-diazaspiro[3.5]nonane-7-carboxylate] had an IC50 of 67 nM. This IC50 is about 3.4-fold higher than that of the compound before.

`O=C(OCc1cc(Cl)cc(Cl)c1)N1CCC2(CC1)CN(Cc1ccc3[nH]c(=O)oc3c1)C2` [Example 4, 3,5-Dichlorobenzyl 2-((2-oxo-2,3-dihydro-benzo[d]oxazol-6-yl)methyl)-2,7-diaza-spiro[3.5]nonane-7-carboxylate]: the IC50 came to 546 nM.

For `O=C(OCc1cc(Cl)cc(Cl)c1)N1CCC2(CC1)CN(C(=O)c1ccc3[nH]c(=O)oc3c1)C2` [Example 5, 3,5-Dichlorobenzyl 2-(2-oxo-2,3-dihydrobenzo[d]oxazole-6-carbonyl)-2,7-diazaspiro[3.5]nonane-7-carboxylate], the IC50 is 7 nM.

`O=C(CCc1cc(Cl)cc(Cl)c1)N1CCC2(CC1)CN(C(=O)c1ccc3[nH]c(=O)oc3c1)C2` [Example 5.1, 6-(7-(3-(3,5-dichlorophenyl)propanoyl)-2,7-diazaspiro[3.5]nonane-2-carbonyl)benzo[d]oxazol-2(3H)-one] showed an IC50 of 61 nM. Against the preceding compound, the IC50 is about 8.7-fold higher.

On to `O=C(NC1CC2(C1)CN(C(=O)OCc1cc(Cl)cc(Cl)c1)C2)c1ccc2[nH]c(=O)oc2c1` [Example 5.2, 6-[(2-oxo-2,3-dihydro-benzooxazole-6-carbonyl)-amino]-2-aza-spiro[3.3]heptane-2-carboxylic acid 3,5-dichloro-benzyl ester], for which the IC50 stood at 26.5 nM.

`O=C(/C=C/c1cc(Cl)cc(Cl)c1)N1CCC2(CC1)CN(C(=O)c1ccc3[nH]nnc3c1)C2` [Example 6, (E)-1-(2-(1H-benzo[d][1,2,3]triazole-5-carbonyl)-2,7-diazaspiro[3.5]nonan-7-yl)-3-(3,5-dichlorophenyl)prop-2-en-1-one] yielded an IC50 of 26 nM.

Consider `O=C(CCc1cc(Cl)cc(Cl)c1)N1CCC2(CC1)CC(Nc1ccc3[nH]c(=O)oc3c1)C2` [Example 6.1, 6-(7-(3-(3,5-dichlorophenyl)propanoyl)-7-azaspiro[3.5]nonan-2-ylamino)benzo[d]oxazol-2(3H)-one], for which half-maximal inhibition (IC50) required 362 nM.

`O=C(COc1cc(Cl)cc(Cl)c1)N1CCC2(CC1)CN(C(=O)c1ccc3[nH]nnc3c1)C2` [Example 6.2, 1-(2-(1H-benzo[d][1,2,3]triazole-5-carbonyl)-2,7-diazaspiro[3.5]nonan-7-yl)-2-(3,5-dichlorophenoxy)ethanone]: the IC50 came to 298 nM. This IC50 and that of the compound before are within 1.5-fold of each other.

Consider `O=C(c1cc(Cl)cc(Cl)c1)N1CCC2(CC1)CN(C(=O)c1ccc3[nH]nnc3c1)C2` [Example 6.3, (2-(1H-benzo[d][1,2,3]triazole-5-carbonyl)-2,7-diazaspiro[3.5]nonan-7-yl)(3,5-dichlorophenyl)methanone], for which the IC50 was 2660 nM.

Compound `O=C(/C=C/c1cc(Cl)cc(Cl)c1)N1CCC2(CC1)CN(C(=O)c1ccc3[nH]c(=O)oc3c1)C2` [Example 6.4, 6-{7-[(E)-3-(3,5-dichloro-phenyl)-acryloyl]-2,7-diaza-spiro[3.5]nonane-2-carbonyl}-3H-benzooxazol-2-one] showed an IC50 of 22 nM.

`O=C(c1ccc2[nH]nnc2c1)N1CCC2(CCN(C(=O)c3cc4cc(Cl)ccc4[nH]3)C2)C1` (centres unmarked) [Example 6.6, (7-(1H-benzo[d][1,2,3]triazole-5-carbonyl)-2,7-diazaspiro[4.4]nonan-2-yl)(5-chloro-1H-indol-2-yl)methanone] showed an IC50 of 605 nM.

The compound `O=C(c1ccc2[nH]nnc2c1)N1CCC2(CCN(C(=O)c3cc4cc(Cl)ccc4o3)C2)C1` (centres unmarked) [Example 6.7, (7-(1H-benzo[d][1,2,3]triazole-5-carbonyl)-2,7-diazaspiro[4.4]nonan-2-yl)(5-chlorobenzofuran-2-yl)methanone] yielded an IC50 of 3930 nM.

In turn, `O=C(NCc1cnn[nH]1)C1CC2(CCN(C(=O)/C=C/c3ccc(OC(F)(F)F)cc3)CC2)C1` [Example 6.8, (E)-N-((1H-1,2,3-triazol-5-yl)methyl)-7-(3-(4-(trifluoromethoxy)phenyl)acryloyl)-7-azaspiro[3.5]nonane-2-carboxamide] yielded an IC50 of 91 nM.

With `O=C(C#Cc1ccc(Cl)cc1)N1CCC2(CC1)CN(C(=O)c1ccc3[nH]nnc3c1)C2` [Example 6.9, 1-(2-(1H-benzo[d][1,2,3]triazole-5-carbonyl)-2,7-diazaspiro[3.5]nonan-7-yl)-3-(4-chlorophenyl)prop-2-yn-1-one], the IC50 stood at 128 nM.

Take `O=C(C#Cc1cccc(Cl)c1)N1CCC2(CC1)CN(C(=O)c1ccc3[nH]nnc3c1)C2` [Example 6.10, 1-(2-(1H-benzo[d][1,2,3]triazole-5-carbonyl)-2,7-diazaspiro[3.5]nonan-7-yl)-3-(3-chlorophenyl)prop-2-yn-1-one]: the IC50 stood at 826 nM. This IC50 is about 6.5-fold higher than that of the compound before.

`O=C(c1ccc2[nH]nnc2c1)N1CC2(CCN(c3nnc(-c4cc(Cl)cc(Cl)c4)o3)CC2)C1` [Example 7, (1H-benzo[d][1,2,3]triazol-5-yl)(7-(5-(3,5-dichlorophenyl)-1,3,4-oxadiazol-2-yl)-2,7-diazaspiro[3.5]nonan-2-yl)methanone] came in with an IC50 of 43 nM.

Consider `O=C(c1ccc2[nH]nnc2c1)N1CC2(CCN(c3nnc(-c4ccc(Cl)cc4)o3)CC2)C1` [Example 7.1, (1H-benzo[d][1,2,3]triazol-5-yl)(7-(5-(4-chlorophenyl)-1,3,4-oxadiazol-2-yl)-2,7-diazaspiro[3.5]nonan-2-yl)methanone], for which half-maximal inhibition (IC50) required 260 nM. Compared with the last compound, the IC50 is about 6-fold higher.

For `O=C(c1ccc2[nH]nnc2c1)N1CC2(CCN(c3nnc(-c4ccc(Cl)cc4)s3)CC2)C1` [Example 8, (1H-Benzo[d][1,2,3]triazol-5-yl)(7-(5-(4-chlorophenyl)-1,3,4-thiadiazol-2-yl)-2,7-diazaspiro[3.5]nonan-2-yl)methanone], the IC50 was 178 nM.

`O=C(NCc1cc(Cl)cc(Cl)c1)N1CCC2(CC1)CN(C(=O)c1ccc3[nH]nnc3c1)C2` [Example 9, 2-(1H-Benzo[d][1,2,3]triazole-5-carbonyl)-N-(3,5-dichlorobenzyl)-2,7-diazaspiro[3.5]nonane-7-carboxamide] showed an IC50 of 1060 nM.

Compound `O=C(c1ccc2[nH]nnc2c1)N1CC2(CCN(C(=O)N3Cc4ccc(Cl)cc4C3)CC2)C1` [Example 10, (2-(1H-Benzo[d][1,2,3]-triazole-5-carbonyl)-2,7-diazaspiro[3.5]nonan-7-yl)(5-chloroisoindolin-2-yl)methanone] displayed an IC50 of 3440 nM.

For `O=C(OCc1ccccc1)N1CCC2(CC1)CC(Nc1ccc3[nH]c(=O)oc3c1)C2` [Example 11, Benzyl 2-(2-oxo-2,3-dihydrobenzo[d]oxazol-6-ylamino)-7-azaspiro[3.5]nonane-7-carboxylate], the IC50 was determined as 1290 nM. Compared with the last compound, the IC50 is about 2.7-fold lower.

`O=C(OCc1ccc(Cl)c(F)c1)N1CCC2(CC1)CN(C(=O)c1ccc3[nH]nnc3c1)C2` [Example 12, 4-Chloro-3-fluorobenzyl 2-(1H-benzo[d][1,2,3]triazole-5-carbonyl)-2,7-diazaspiro[3.5]nonane-7-carboxylate] returned an IC50 of 130 nM.

Take `O=C(OCc1cc(Cl)nc(Cl)c1)N1CCC2(CC1)CN(C(=O)c1ccc3[nH]nnc3c1)C2` [Example 12.01, (2,6-dichloropyridin-4-yl)methyl 2-(1H-benzo[d][1,2,3]triazole-5-carbonyl)-2,7-diazaspiro[3.5]nonane-7-carboxylate]: the midpoint of inhibition, the IC50, lay at 150 nM.

The compound `O=C(OCc1ccc(Cl)c(Cl)c1)N1CCC2(CC1)CN(C(=O)c1ccc3[nH]nnc3c1)C2` [Example 12.02, 3,4-dichlorobenzyl 2-(1H-benzo[d][1,2,3]triazole-5-carbonyl)-2,7-diazaspiro[3.5]nonane-7-carboxylate] had an IC50 of 44 nM.

For the compound `O=C(OCc1cnc(Cl)c(Cl)c1)N1CCC2(CC1)CN(C(=O)c1ccc3[nH]nnc3c1)C2` [Example 12.03, (5,6-dichloropyridin-3-yl)methyl 2-(1H-benzo[d][1,2,3]triazole-5-carbonyl)-2,7-diazaspiro[3.5]nonane-7-carboxylate], the IC50 was 622 nM.

For the compound `O=C(OCc1ccc(Cl)cc1Cl)N1CCC2(CC1)CN(C(=O)c1ccc3[nH]nnc3c1)C2` [Example 12.04, 2,4-dichlorobenzyl 2-(1H-benzo[d][1,2,3]triazole-5-carbonyl)-2,7-diazaspiro[3.5]nonane-7-carboxylate], the IC50 came out at 17 nM.

One may read the IC50 as the concentration needed to halve the response being measured. The low end stands for greater potency, the high end for weaker potency.
